Reference: publication PMC9227536, “Prediction of Pharmacokinetics of IDP-73152 in Humans Using Physiologically-Based Pharmacokinetics” (Pharmaceutics, 2022)

Test: PBPK model prediction, humans
From the text: In this study, the PBPK model involving ten tissues (i.e., adipose tissue, brain, heart, kidney, liver, lung, muscle, skin, spleen, and testis (Figure 2; see Appendix A for detailed mathematical descriptions)) was considered to be applicable for the description of IDP-73152 PK in rats, mice, dogs, and humans. Physiological variables were obtained from the literature; they are summarized in Supplementary Table S1.
For the estimation of the volume of the distribution of IDP-73512 in rats, the steady-state volume of distribution (Vss) was calculated using the following equation [30]:(10) Vss=VP+Vrbc×EP+∑VT,i×KP,ss,i, where Vp, Vrbc, and VT,i are the volumes of plasma, red blood cells, and tissues, respectively. The erythrocyte-to-plasma partition coefficient (EP), is calculated by EP=1+(BP−1)/Hematocrit . The KP,ss for each tissue obtained from Equation (8) was applied for Equation (10). For the case of non-eliminating organs, the KP,ss was regarded as the tissue-to-plasma partition coefficient (KP) in PBPK equations (Appendix A). For the case of the liver—i.e., the eliminating organ—the KP,ss (KP,ss,LI) had to be corrected to account for the equilibrium being altered by the elimination. Thus, a PBPK-operative KP for liver (KP,LI) was calculated using the following equation [31]:(11) KP,LI=KP,ss,LI/(1−ER), where ER is the hepatic extraction ratio of the compound (i.e., CLh/(QLI·BP)). In this study, a compartmental absorption and transit (CAT) model consisting of stomach and five intestinal segments was considered for the description of the intestinal absorption kinetics of IDP-73152 in animals and humans. We assumed that the initial compartment denoted the stomach (Equation (12)), and the subsequent three compartments represented the small intestine and two additional compartments for the large intestine (i.e., a total of six compartments, with absorption occurring in the five intestinal compartments) (Equation (13)). The differential equations describing the rate of drug absorption and transit in the gastrointestinal tract can be written as:
For the intestine, viz. i = 1~5:(13) dMi/dt=Kt,i−1×Mi−1−(Kt,i+ka,i)×Mi, where Ms is the amount of drug in the stomach; Mi is the amount of drug in the i-th intestinal segment; Ks, Kt,i, and ka,i are the rate constants of gastric emptying, intestinal transit, and the segmental absorption rate, respectively. […] The absorption rate constant in the intestinal segments in humans, ka,i,human, was assumed to be identical along the segments and calculated as follows: first, Peff was empirically estimated from the Caco-2 cell permeability (Papp):(14) LogPeff=0.4926×LogPapp−0.1454
Then, ka,i,human for the intestinal segments i = 1~5 was calculated by (15) ka,1~5,human=2×Peff/R […]

CC(C)(C)[C@H](NC(=O)[C@H](CC1CCCC1)CN(O)C=O)C(=O)N1CCC(NCc2cc(F)c(F)cc2F)CC1 [IDP-73152]
AUC ratio (oral 640 mg): 1.00 | Cmax ratio (oral 640 mg): 0.498 | AUC ratio (oral 1280 mg): 1.12 | Cmax ratio (oral 1280 mg): 0.671
